From EP4751721A1, “COMPOSITION CONTAINING NOVEL COMPOUND FOR PREVENTING OR TREATING PARKINSON'S DISEASE” (PRG S&Tech Inc., priority 2023, dated 2025)

Key:
Syn^A53T-Tg mice = test: In vivo treatment and histological analysis in Parkinson's disease (PD) mouse model
Experimental: Experiments were conducted in approved facility of Association for Assessment and Accreditation of Laboratory Animal Care in accordance with animal policies approved by Pusan National University. B6.Cg-Tg (Prnp-SNCAA53T)/J mice were obtained from Jackson Laboratory (Stock No: 006823). All mice were maintained under temperature- and light-controlled conditions (20-23°C, 12 h-12 h light/dark cycle) and provided with autoclaved food and water.
24 week-old Syn^A53T-Tg mice were administered vehicle (DMSO), PRG-A-03, and PRG-A-04 intraperitoneally twice a week for 24 to 26 weeks. Control mice were treated under the same conditions. Mice were sacrificed at 48-52 weeks of age for histological analysis. After cardiac perfusion with 4% paraformaldehyde, the brains were dissected and embedded in paraffin blocks according to standard tissue processing procedures. Embedded tissue ([…]) was cut into 5 µm sections using a tissue sectioner (Leica microtome) and transferred to adhesive-coated slides (Marienfeld laboratory glassware, Germany). For histological pathologic analysis of Syn^A53T-Tg mice, immunohistochemistry (IHC) using a dopaminergic neuronal marker (Tyrosine Hydroxylase) was performed after deparaffinization and rehydration. To monitor dopaminergic neurons by immunofluorescence (IF), dissected brains were embedded in agarose holders and sectioned with a vibratome. Thinly sliced tissues were treated with a blocking solution (normal donkey serum diluted 1:500 in 0.1% Triton X-100 PBS) for 1 h. Cells were incubated with anti-TH antibody (diluted 1:500) overnight at 4°C. Finally, cells were incubated with FITC-conjugated secondary antibody at 4°C for 2 h. Cells were washed three times with PBS, and coverslips were mounted using mounting solution (H-5501, Vector Laboratories), followed by analysis by fluorescence microscopy (Zeiss). […]

normal human fibroblasts = test: Cell viability (MTT assay) in normal human fibroblasts; format: cell-based; settings: 48 h; for cytotoxic effects (cell viability, MTT): normal human fibroblasts, FIG. 3
Experimental: SK-N-SH cells were purchased from the Korean Cell Line Bank (KCLB, Seoul, South Korea) and maintained in MEM medium containing 10% fetal bovine serum, 1% antibiotics, 25 mM HEPES, and 300 mg/L L-Glu. Human fibroblasts (person) were obtained from Coridll Cell Repositories (New Jersey, USA) and maintained in EMEM containing 15% FBS and 2 mM glutamine, along with 26 mM HEPES without antibiotics.
To investigate cell viability, cells were treated with chemicals (PRG-A compound) for 48 h. Then, the cells were incubated with 0.5 mg/ml 3-(4,5-dimethylthiazol-2-yl)-2,5-diphenyltetrazolium bromide (MTT) solution (475989; Merck, Darmstadt, Germany) at 37°C for 4 h. After removing the excess solution and washing with PBS, the precipitated substances were dissolved in 200 µl of DMSO and quantified by measuring the absorbance at 540 nm.
Lastly, to determine the toxicity of PRG-A compounds, normal human fibroblasts and neuroblastoma cells (SK-N-SH) were cultured with each compound for 48 h, and cell viability was measured via the MTT assay. The effect on survival rates of neuronal cells and normal fibroblasts was identified (FIG. 3).

Syn-A53T = biological target: T1, Syn-A53T (Homo sapiens, UniProt P37840, A53T); test: Immunofluorescence staining of aggregated synuclein in transfected cells; format: cell-based; settings: Syn-A53T vector 24 h, compound 5 µM for 24 h, pan-Syn antibody, FIG. 1C
T1 construct: FLAG; host or cells: SK-N-SH

[1] = biological target: T2, synuclein mutant (Syn-A53T) (Homo sapiens, UniProt P37840, A53T); test: Insoluble/soluble synuclein fractionation by Western blot in SK-N-SH cells transfected with MT-Syn (Syn-A53T); format: cell-based; settings: treated for 24 h, pellet (insoluble) vs supernatant, FIG. 1B
T2 construct: FLAG; host or cells: SK-N-SH
Experimental: For SDS-PAGE, proteins were extracted from cells using RIPA buffer (50 mM Tris-Cl, pH 7.5, 150 mM NaCl, 1% NP-40, 0.1% SDS, and […] sodium deoxycholate). Samples were separated by SDS-PAGE and transferred to a PVDF membranes. The blotted membrane was blocked with 3% skim milk containing TBST buffer for 1 h and incubated with specific antibodies. Reacted antibodies were detected by ECL and X-ray film exposure. The antibody used in this experiment was pan-Syn (GTX112799), purchased from Genetex (California, USA). Actin antibody (66009-1-lg) and α-tubulin antibody (66240-1-lg) were obtained from Proteintech (Rosemont, IL, USA). Anti-FLAG (Sigma; F3165) from Sigma Aldrich (St, Louis, MO, USA) was used as a […], and HRP-conjugated goat anti-mouse, goat anti-rabbit, and mouse anti-goat antibodies (Pierce, Thermo Fisher Scientific, Inc., Rockford, IL, USA) were used. FLAG-Syn-WT and MT vectors were transfected into SK-N-SH cells for 24 h. […]
To identify the effect of the PRG-A compound on alpha-synuclein aggregation, the inventors transfected the FLAG-Syn-A30P vector into SK-N-SH cells for 24 h. […] Expression of synuclein was observed under a fluorescence microscope with a pan-Syn antibody (white arrow; high intensity of Syn).

CC1(C)Oc2cc3oc(=O)ccc3cc2C[C@@H]1OC(=O)/C=C/c1ccc(F)cc1 [PRG-A-03, (S)-8,8-dimethyl-2-oxo-7,8-dihydro-2H,6H-pyrano[3,2-g]chromen-7-yl (E)-3-(4-fluorophenyl)acrylate]
phosphorylation of Tau in brain tissue (Syn^A53T-Tg mice; brain tissue of Syn-A53T Tg, FIG. 2C): suppresses phosphorylation of Tau
Dopaminergic neuron markers (Tyrosine Hydroxylase, TH) in the substantia nigra (SN), IHC (Syn^A53T-Tg mice; intraperitoneal, 20 mg/kg or 40 mg/kg, 24 to 26 weeks, FIG. 2B): maintained
impact on cell viability (MTT) (normal human fibroblasts; high doses (50 and 100 µM), cell type not given): low impact on cell viability

COc1cc(/C=C/CO[C@H]2Cc3cc4ccc(=O)oc4cc3OC2(C)C)ccc1O [PRG-A-02, (S,E)-7-((3-(4-hydroxy-3-methoxyphenyl)allyl)oxy)-8,8-dimethyl-7,8-dihydro-2H,6H-pyrano[3,2-g]chromen-2-one]
cytotoxic effects (cell viability, MTT) (normal human fibroblasts): did not exhibit cytotoxic effects

CC1(C)Oc2cc3oc(=O)ccc3cc2C[C@@H]1O [Chem-001, decursinol]
Aggregated synuclein (immunofluorescence) (Syn-A53T): marginal effects

COc1cc(/C=C/CO[C@H]2Cc3cc4ccc(=O)oc4cc3OC2(C)C)ccc1[N+](=O)[O-] [PRG-A-04, (S,E)-7-((3-(3-methoxy-4-nitrophenyl)allyl)oxy)-8,8-dimethyl-7,8-dihydro-2H,6H-pyrano[3,2-g]chromen-2-one]
loss of dopaminergic neurons in the SN by IF staining using TH (Syn^A53T-Tg mice; intraperitoneal, 20 mg/kg or 40 mg/kg, 24 to 26 weeks, FIG. 2D): prevents the loss of dopaminergic neurons
insoluble synuclein [1]: reduce insoluble synuclein in a dose-dependent manner
cytotoxic effects (cell viability, MTT) (normal human fibroblasts): did not exhibit cytotoxic effects

COc1cc(/C=C/C(=O)O[C@H]2Cc3cc4ccc(=O)oc4cc3OC2(C)C)ccc1O [PRG-A-01, (S)-8,8-dimethyl-2-oxo-7,8-dihydro-2H,6H-pyrano[3,2-g]chromen-7-yl (E)-3-(4-hydroxy-3-methoxyphenyl)acrylate]
cytotoxic effects (cell viability, MTT) (normal human fibroblasts): did not exhibit cytotoxic effects
